Experimental data: patent US6743917B2, “Camptothecin analogs and methods of preparation thereof” (University of Pittsburgh, priority 1993, dated 2004)
Read-outs that look alike come from different tables or passages of the source.

Tests used:
[1] = Equilibrium binding to DMPC small unilamellar vesicles (fluorescence anisotropy titration); conditions: PBS buffer at PH 7.4 and 37° C.
[2] = Equilibrium binding to DMPG small unilamellar vesicles (fluorescence anisotropy titration); conditions: PBS buffer at PH 7.4 and 37° C.
[3] = system: HL-60 (human promyelocytic leukemic) cells; assay: Cytotoxicity assay, HL-60 cells (XTT-microculture tetrazolium assay); type: cell-based; conditions: HL-60 cells, 72 hr incubation, XTT, read-out: Inhibition of cancer cell growth IC50, HL-60
Protocol: The camptothecin derivatives were evaluated for their cytotoxic effects on the growth of HL-60 (human promyelocytic leukemic), 833K (human teratocarcinoma) and DC-3F (hamster lung) cells in vitro. The cells were cultured in an initial density of […]. They were maintained in a 5% CO2 humidified atmosphere at 37° C. in RPMI-1640 media (GIBCO-BRL Grand Island, N.Y.) containing penicillin 100 μ/ml)/streptomycin (100 ^μg/ml) (GIBCO-BRL) and 10% heat inactivated fetal bovine serum. The assay was performed in duplicate in 96-well microplates. The cytotoxicity of the compounds toward HL-60 cells following 72 hr incubation was determined by XTT-microculture tetrazolium assay. Scudiero, D. A., et al., Cancer Res., 48, 4827 (1988), the disclosure of which is incorporated herein by reference. 2′, 3′-bis(-methoxy-4-nitro-5-sulfheny)-5-[(phenylamino)carbonyl]-2H-tetrazolium hydroxide (XTT) was prepared at 1 mg/ml in prewarmed (37° C.) medium without serum. Phenazine methosulfate (PMS) and fresh XTT were mixed together to obtain 0.075 mM PMS-XTT solution (25 ^μl of the stock 5 mM PMS was added per 5 ml of 1 mg/ml XTT). Fifty ^μl of this mixture was added to each well of the cell culture at the end of 72 hr incubation. After incubation at 37° C. for 4 hr., absorbance at 450 nm and 630 nm was measured with a microplate reader (EL340, Bio-Tek Instruments, Inc., Winooski, Vt.).

[4] = system: 833K (human teratocarcinoma) cells; assay: Cytotoxicity assay, 833K cells (sulforhodamine B protein content); type: cell-based; conditions: 833K cells, sulforhodamine B, read-out: Inhibition of cancer cell growth IC50, 833K
Protocol: (§1) Cultures were fixed with trichloroacetic acid and then stained for 30 minutes with 0.4% sulforhodamine B dissolved in 1% acetic acid. Unbound dye was removed by acetic acid washes, and the protein-bound dye was extracted with an unbuffered Tris base [tris(hydroxy-methyl)aminomethan] for determination of absorbance at 570 nm in a 96-well microplate reader. The experiments were carried out in duplicate using five to six concentrations of the drugs tested. Data were analyzed via computer software.

[5] = system: DC-3F (hamster lung) cells; assay: Cytotoxicity assay, DC-3F cells (sulforhodamine B protein content); type: cell-based; conditions: DC-3F cells, sulforhodamine B, read-out: Inhibition of cancer cell growth IC50, DC-3F
Protocol: as §1

| Compound | KDMPC overall association constant [1] | KDMPG overall association constant [2] | IC50 ([3]; Homo sapiens) | IC50 ([5]; Mesocricetus auratus, DC3F) | also measured |
| --- | --- | --- | --- | --- | --- |
| CCC1(O)C(=O)OCc2c1cc1n(c2=O)Cc2c-1nc1ccc(OC)cc1c2C (stereo not drawn) [7-methyl-10-methoxycamptothecin] | 220 M⁻¹ | 200 M⁻¹ | – | – | – |
| CCCc1c2c(nc3ccccc13)-c1cc3c(c(=O)n1C2)COC(=O)[C@]3(O)CC [7-propyl-20(S)-camptothecin] | 540 M⁻¹ | 600 M⁻¹ | – | – | – |
| CCCc1c2c(nc3ccc(O)cc13)-c1cc3c(c(=O)n1C2)COC(=O)C3(O)CC (stereo not drawn) [7-propyl-10-hydroxycamptothecin] | 550 M⁻¹ | 250 M⁻¹ | – | – | – |
| (20S)-11,12-difluoro-7-trimethylsilylcamptothecin and (20S)-9,10-difluoro-7-trimethylsilylcamptothecin [Example 11] | – | – | – | – | IC50 [3]: 1.01 nM; IC50 [4]: 2.1 nM; IC50 [5]: 2.5 nM |
| CCC1(O)C(=O)OCc2c1cc1n(c2=O)Cc2c-1nc1ccccc1c2[Si](c1ccccc1)(c1ccccc1)C(C)(C)C (stereo in doubt) [Example 3, (20S)-7-tert-butyldiphenylsilylcamptothecin] | – | – | 339 nM | 663 nM | IC50 ([4]; Homo sapiens): 243 nM |
| CCc1c2c(nc3ccccc13)-c1cc3c(c(=O)n1C2)COC(=O)[C@]3(O)CC [7-ethyl-20(S)-camptothecin] | 250 M⁻¹ | 300 M⁻¹ | – | – | – |
| CCC1(O)C(=O)OCc2c1cc1n(c2=O)Cc2c-1nc1cc(F)c(N)cc1c2[Si](C)(C)C (stereo in doubt) [Example 10, (20S)-11-fluoro-10-amino-7-trimethylsilylcamptothecin] | – | – | 0.07 nM | 0.29 nM | IC50 ([4]; Homo sapiens): 0.14 nM |
| CCCCc1c2c(nc3ccc(O)cc13)-c1cc3c(c(=O)n1C2)COC(=O)C3(O)CC (stereo not drawn) [7-butyl-10-hydroxycamptothecin] | 2100 M⁻¹ | 1270 M⁻¹ | – | – | – |
| CC[C@@]1(O)C(=O)OCc2c1cc1n(c2=O)Cc2c-1nc1ccccc1c2[Si](C)(C)CC1CCC2CC1C2(C)C (stereo partly drawn) [Example 14, (20S)-7-(dimethyl-(1′S,2′S,5′S) 7,7 dimethylnorpinylsilyl)camptothecin] | – | – | 66.9 nM | 64.1 nM | IC50 ([4]; Homo sapiens): 197 nM |
| CC[C@@]1(O)C(=O)OCc2c1cc1n(c2=O)Cc2c-1nc1ccccc1c2C [7-methyl-20(S)-camptothecin] | 150 M⁻¹ | 180 M⁻¹ | – | – | – |
| CCc1c2c(nc3ccc(OC)cc13)-c1cc3c(c(=O)n1C2)COC(=O)C3(O)CC (stereo not drawn) [7-ethyl-10-methoxycamptothecin] | 340 M⁻¹ | 330 M⁻¹ | – | – | – |
| CCCc1c2c(nc3ccc(OC)cc13)-c1cc3c(c(=O)n1C2)COC(=O)C3(O)CC (stereo not drawn) [7-propyl-10-methoxycamptothecin] | 440 M⁻¹ | 570 M⁻¹ | – | – | – |
| CC[C@@]1(O)C(=O)OCc2c1cc1n(c2=O)Cc2c-1nc1ccc(OC(C)=O)cc1c2[Si](C)(C)C(C)(C)C [Example 17, (20S)10-acetoxy-7-tert-butyldimethylsilylcamptothecin] | – | – | 1.86 nM | 3.57 nM | – |
| CCC1(O)C(=O)OCc2c1cc1n(c2=O)Cc2c-1nc1ccc(O)cc1c2C (stereo not drawn) [7-methyl-10-hydroxycamptothecin] | 220 M⁻¹ | 90 M⁻¹ | – | – | – |
| CC[C@@]1(O)C(=O)OCc2c1cc1n(c2=O)Cc2c-1nc1ccc(OC(C)=O)cc1c2[Si](C)(C)C(C)(C)C [Example 18, (20S)10-Acetoxy-7-tert-butyldimethylsilylcamptothecin] | – | – | – | – | IC50 [3]: 2.6 nM; IC50 [5]: 5.2 nM |
| CCC1(O)C(=O)OCc2c1cc1n(c2=O)Cc2c-1nc1ccc(OC(C)=O)cc1c2[Si](C)(C)C (stereo in doubt) [Example 4, (20S)-10-acetoxy-7-trimethylsilylcamptothecin] | – | – | 2.7 nM | 6.7 nM | – |
